Laboratory results: patent publication US20260008768A1, “UREA DERIVATIVES FOR INHIBITING NLRP3 AND USES THEREOF” (VENTUS THERAPEUTICS U.S., INC., priority 2023, published 2026)
pIC50: −log10 of the molar value.

Legend:
[1] = target: T1, human NLRP3 (Homo sapiens, UniProt Q96P20); experiment: Scintillation Proximity (SPA) NLRP3 Assay, displacement of 3H-MCC950; assay type: binding; conditions: displacement of 3H-MCC950 from human NLRP3
Procedure, shortened: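 Displacement of radioligand 3H-MCC950 (125 nM final) from 350 nM human NLRP3, read by scintillation proximity after 6 h equilibration with PVT beads. Buffer: 20 mM HEPES pH 7.5, 150 mM NaCl, 5 mM MgCl2, 100 μM ADP; compound preincubated 15 min, ligand 60 min, RT. IC50 from specific binding.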

[2] = target: T1, human NLRP3; experiment: Human Whole Blood (hWB) NLRP3 Assay (LPS/ATP, IL-1β); assay type: cell-based; set-up: host or cells: human whole blood from healthy volunteers (A3)
Experimental: Human whole blood is drawn from healthy volunteers after obtaining written informed consent. Heparin lithium coated tubes are used to collect blood from volunteers. Blood samples are distributed on 96 well plates using 90 μl per well.
Priming procedure: Priming is performed by adding 5 μl of LPS (O26:B6; Sigma L-2654) at a final concentration of 1 μg/ml for 4.5 hours in a humidified incubator with 37° C., 5% CO2. Thirty minutes prior to NLRP3 activation, 5 μl of a 20× compound solution or vehicle (2% dimethylsulfoxide (DMSO)) is added to each well and plates were incubated on a shaker (450 rpm) in a humidified incubator with 37° C., 5% CO2.
Alternative priming procedure: Thirty minutes prior to LPS priming, 5 μl of a 20× compound solution or vehicle (2% dimethylsulfoxide (DMSO)) is added to each well and plates were incubated on a shaker (450 rpm) in a humidified incubator with 37° C., 5% CO2. Priming is performed by adding 5 μl of LPS (O26:B6; Sigma L-2654) at a final concentration of 1 μg/ml for 5 hours in a humidified incubator with 37° C., 5% CO2.
Activation is then performed by adding 3.3 μl of a 31×ATP solution per well. At the end of the 30 minutes stimulation, the plates are centrifuged (800 g, 10 min, room temperature) and the plasma from each well is frozen at −80° C. IL-1β levels in the supernatant were analyzed using a mesoscale discovery assay (MSD K151TUK) according to the manufacturers' instructions.
There is no detectable difference in assay results using the priming procedure versus the alternative priming procedure.
hWB NLRP3 IC50 assay results, as a measurement of whole blood potency, are provided in Table B. “A” activity=<1 uM; “B” activity=1-2 uM; “C” activity=>2-3 uM; “D” activity=>3 uM.

[3] = target: T1, human NLRP3; experiment: Human PBMC NLRP3 Assay (LPS priming, ATP stimulation, cytokine measurement); assay type: cell-based; set-up: host or cells: human PBMCs (A2); human whole blood from healthy volunteers (A3); conditions: human PBMC, LPS + ATP
Experimental: Reagents: Human PBMCs (Normal): iXCells Cat #10HU-003; RPMI 1640 medium with GlutaMAX: ThermoFisher Cat #61870127 (Complete Media: 4.5 g/L D-glucose, 10% FBS, 100 mM NaPyr, 1% Pen/Strep, 10 mM HEPES and 0.05 mM of ®-mercaptoethanol; Assay Media: 4.5 g/L D-glucose, 100 mM NaPyr, 1% Pen/Strep, 10 mM HEPES and 0.05 mM of mercaptoethanol; 96-well V-bottom Plates: Costar Cat #3894; LPS (E. coli O26:B6): Sigma Cat #L2654, stock 5 mg/mL in PBS; ATP: Sigma Cat #A6419, prepared in a 250 mM stock in 1 M HEPES (adjusted to pH 7.4).
Cryopreserved PBMCs were rapidly thawed in a 37° C. water bath for 2 min. Cells were then centrifuged at 1200 RPM for 5 min and resuspended in ˜50 mL of fresh RPMI 1640 Complete Medium. A count was undertaken using a hemocytometer and adjusted to 2.5×10^5 cells/mL. V-shaped 96-well plates were seeded with 200 μL of PBMCs (5×10^4) per well and subsequently incubated overnight at 37° C. with 5% CO2. Assay Media was then prepared containing 100 ng/ml of LPS. PBMCs were then centrifuged at 1,200 RPM for 5 min, serum containing media was aspirated, and 150 μL/well of Assay Media+LPS was immediately added. Assay Media without LPS was added in the untreated control wells. Cells were then primed with LPS for 4 h at 37° C. with 5% CO2. A concentration response curve (CRC) was prepared of 1000× test compound in 100% DMSO. The CRC was then diluted 1:50 in Assay Media and then further diluted by 1:5× in Assay Media resulting in a final 4×CRC in 0.4% DMSO/Assay Media. 50 μL/well of 4× test compound CRC or vehicle (0.4% DMSO/Assay Media) was then transferred into each well and subsequently incubated for 30 min at 37° C. with 5% CO2. Cells were stimulated by adding 4 μL of 250 mM ATP, using a 250 mM stock prepared in 1 M Hepes without further dilution (for a final concentration of 5 mM), for 1 h at 37° C. with 5% CO2 Plates were then centrifuged at 1200 RPM for 5 min; and 50 μl of the media was transferred to a clean 96-well storage plate for cytokine measurements using the mesoscale platform, and stored at −80° C. until analyzed. Compounds were added 30 minutes before priming the cells with LPS when TNFα was required to be quantified in the cytokine panel to confirm selectivity.
PBMC NLRP3 IC50 assay results, as a measurement of cellular potency, are provided in Table B. “A” activity=<0.01 uM; “B” activity=0.01-0.1 uM; “C” activity=>0.1-0.5 uM; “D” activity=>0.5 uM.

T1 sequence (Q96P20 whole entry): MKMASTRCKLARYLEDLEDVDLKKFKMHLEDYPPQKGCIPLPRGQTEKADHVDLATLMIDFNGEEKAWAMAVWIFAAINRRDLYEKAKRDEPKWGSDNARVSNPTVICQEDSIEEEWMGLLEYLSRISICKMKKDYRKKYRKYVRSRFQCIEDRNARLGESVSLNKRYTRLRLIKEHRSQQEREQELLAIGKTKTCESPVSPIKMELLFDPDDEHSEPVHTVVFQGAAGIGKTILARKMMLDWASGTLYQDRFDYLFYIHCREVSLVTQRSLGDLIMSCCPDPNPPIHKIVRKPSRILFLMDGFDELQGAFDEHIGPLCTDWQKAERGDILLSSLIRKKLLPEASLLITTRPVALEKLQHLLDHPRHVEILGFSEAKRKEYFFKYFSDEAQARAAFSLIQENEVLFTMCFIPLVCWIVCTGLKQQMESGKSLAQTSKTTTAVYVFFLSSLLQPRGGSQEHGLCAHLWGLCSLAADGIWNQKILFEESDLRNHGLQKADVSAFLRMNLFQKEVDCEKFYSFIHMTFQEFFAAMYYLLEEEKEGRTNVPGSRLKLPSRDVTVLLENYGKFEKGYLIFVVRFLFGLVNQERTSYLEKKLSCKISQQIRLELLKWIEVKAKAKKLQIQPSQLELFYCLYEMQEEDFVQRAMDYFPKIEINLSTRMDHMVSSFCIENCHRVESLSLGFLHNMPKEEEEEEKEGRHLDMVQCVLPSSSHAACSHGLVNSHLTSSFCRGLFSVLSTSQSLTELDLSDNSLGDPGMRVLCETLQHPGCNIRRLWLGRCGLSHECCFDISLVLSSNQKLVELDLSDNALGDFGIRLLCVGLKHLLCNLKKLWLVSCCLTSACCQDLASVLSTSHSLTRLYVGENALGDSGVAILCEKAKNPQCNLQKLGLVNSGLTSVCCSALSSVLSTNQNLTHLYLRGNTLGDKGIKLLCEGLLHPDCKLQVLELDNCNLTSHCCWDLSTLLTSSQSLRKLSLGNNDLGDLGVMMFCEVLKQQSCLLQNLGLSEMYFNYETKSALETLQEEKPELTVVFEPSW

Compound	pIC50 ([1]; Table B, activity class)	pIC50 ([2]; Table B, activity class)	pIC50 ([3]; Table B, activity class)	pIC50 ([1]; Table C)	pIC50 ([2]; Table C)	pIC50 ([3]; Table C)
C[C@@H]1CCN(c2nnn[nH]2)C[C@H](NC(=O)N(C)c2ccc(OC(F)(F)F)c(F)c2)C1 (single isomer, unassigned) [14A*]	> 6.00	5.70 to 6.00	7.00 to 8.00			
C[C@@H]1CCN(c2nnn[nH]2)C[C@H](NC(=O)N(C)c2ccc(OC(F)F)c(F)c2)C1 (single isomer, unassigned) [15A*]	> 6.00	> 6.00	> 8.00			
C[C@@H]1CCN(c2nnn[nH]2)C[C@H](NC(=O)N(C)c2ccc(OC(F)F)c(OC(F)F)c2)C1 (single isomer, unassigned) [16A*]	> 6.00	5.70 to 6.00	> 8.00			
C[C@@H]1CCN(c2nnn[nH]2)C[C@H](NC(=O)N(C)c2ccc(OC(F)F)cc2F)C1 (single isomer, unassigned) [17A*]	> 6.00	5.70 to 6.00	> 8.00			
C[C@@H]1CCN(c2nnn[nH]2)C[C@H](NC(=O)N(C)c2ccc(C(F)F)cc2F)C1 (single isomer, unassigned) [18A*]	> 6.00	> 6.00	> 8.00			
C[C@@H]1CCN(c2nnn[nH]2)C[C@H](NC(=O)N(C)c2c(F)cc(OC(F)F)cc2F)C1 (single isomer, unassigned) [19A*]	> 6.00	> 6.00	> 8.00			
C[C@@H]1CCN(c2nnn[nH]2)C[C@H](NC(=O)N(C)c2c(F)cc(C3CC3)cc2F)C1 (single isomer, unassigned) [20A*]	> 6.00	> 6.00	> 8.00			
C[C@@H]1CCN(c2nnn[nH]2)C[C@H](NC(=O)N(C)c2ccc(C(F)(F)F)c(F)c2F)C1 (single isomer, unassigned) [21A*]	> 6.00	> 6.00	7.00 to 8.00			
C[C@@H]1CCN(c2nnn[nH]2)C[C@H](NC(=O)N(C)c2ccc(C3CC3)c(F)c2)C1 (single isomer, unassigned) [23A*]	> 6.00	> 6.00	> 8.00			
C[C@@H]1CCN(c2nnn[nH]2)C[C@H](NC(=O)N(C)c2ccc(OC(F)(F)F)cc2F)C1 (single isomer, unassigned) [24A*]	> 6.00	> 6.00	> 8.00	6.96	6.59	8.10
C[C@@H]1CCN(c2nnn[nH]2)C[C@H](NC(=O)N(C)c2ccc(OC(F)(F)F)c(F)c2F)C1 (single isomer, unassigned) [26A*]	> 6.00	< 5.52	7.00 to 8.00			
C[C@@H]1CCN(c2nnn[nH]2)C[C@H](NC(=O)N(C)c2ccc(OC(F)F)c(F)c2F)C1 (single isomer, unassigned) [40A*]	> 6.00	5.70 to 6.00	7.00 to 8.00			
C[C@@H]1CCN(c2nnn[nH]2)C[C@H](NC(=O)N(C)c2c(F)cc(OC(F)(F)F)cc2F)C1 (single isomer, unassigned) [41A*]	> 6.00	> 6.00	> 8.00			
C[C@@H]1C[C@@H](NC(=O)N(C)c2ccc(OC(F)F)cc2)[C@H]2CC[C@@H]1N2c1nnn[nH]1 (single isomer, unassigned) [42A*]	> 6.00	> 6.00	> 8.00	7.19	6.54	8.39
CCN(C(=O)N[C@@H]1C[C@H](C)CCN(c2nnn[nH]2)C1)c1ccc(OC(F)(F)F)cc1 (single isomer, unassigned) [43A*]	> 6.00	> 6.00	> 8.00			
C[C@@H]1C[C@@H](NC(=O)N(C)c2ccc(C3CC3)cc2)[C@H]2CC[C@@H]1N2c1nnn[nH]1 (single isomer, unassigned) [46A*]	> 6.00	> 6.00	> 8.00			
C[C@@H]1C[C@@H](NC(=O)N(C)c2ccc(C(F)(F)F)c(F)c2)[C@H]2CC[C@@H]1N2c1nnn[nH]1 (single isomer, unassigned) [49A*]	> 6.00	5.70 to 6.00	7.00 to 8.00			
C[C@@H]1C[C@@H](NC(=O)N(C)c2ccc(OC(F)F)c(F)c2)[C@H]2CC[C@@H]1N2c1nnn[nH]1 (single isomer, unassigned) [52A*]	> 6.00	> 6.00	7.00 to 8.00			
C[C@@H]1C[C@@H](NC(=O)N(C)c2ccc(C3CC3)c(F)c2)[C@H]2CC[C@@H]1N2c1nnn[nH]1 (single isomer, unassigned) [54A*]	> 6.00	> 6.00	> 8.00			
C[C@@H]1C[C@@H](NC(=O)N(C)c2ccc(OC(F)F)cc2F)[C@H]2CC[C@@H]1N2c1nnn[nH]1 (single isomer, unassigned) [57A*]	> 6.00	> 6.00	> 8.00	6.70	6.72	8.51
C[C@@H]1C[C@@H](NC(=O)N(C)c2ccc(OC(F)(F)F)c(F)c2F)[C@H]2CC[C@@H]1N2c1nnn[nH]1 (single isomer, unassigned) [59A*]	> 6.00	5.52 to 5.70	6.30 to 7.00			
C[C@@H]1C[C@@H](NC(=O)N(C)c2c(F)cc(C3CC3)cc2F)[C@H]2CC[C@@H]1N2c1nnn[nH]1 (single isomer, unassigned) [60A*]	> 6.00	> 6.00	> 8.00			
C[C@@H]1C[C@@H](NC(=O)N(C)c2c(F)cc(OC(F)F)cc2F)[C@H]2CC[C@@H]1N2c1nnn[nH]1 (single isomer, unassigned) [61A*]	> 6.00	> 6.00	> 8.00			
C[C@@H]1C[C@@H](NC(=O)N(C)c2c(F)cc(OC(F)(F)F)cc2F)[C@H]2CC[C@@H]1N2c1nnn[nH]1 (single isomer, unassigned) [62A*]	> 6.00	> 6.00	7.00 to 8.00			
C[C@@H]1C[C@@H](NC(=O)N(C)c2ccc(OC(F)F)c(OC(F)F)c2)[C@H]2CC[C@@H]1N2c1nnn[nH]1 (single isomer, unassigned) [64A*]	> 6.00	> 6.00	7.00 to 8.00			
